Reference: US20040127567A1, “Novel methods for treating disorders in which docosahexaenoic acid (DHA) levels are affected” (Beth Israel Deaconess Medical Center, Inc., priority 1998, published 2004)
Where “and” joins values, the source holds several entries; their conditions need not be identical. Equal values may be shown once. Entries after “also recorded” stand apart in the source; their conditions may differ.

Key:
CFTR−/− mice = experiment: Pancreatic morphology / luminal diameter in CFTR−/− mice; type: in vivo, mouse; conditions: for Effect on pancreas morphology (in words): 40 mg/day for one week (fish oil: dose equivalent to 40 mg DHA, 60 mg EPA, 15 mg LNA), vs Peptamen alone
Method: CF and WT mice were fed as outlined in the method section above. Dilation of the pancreatic duct lumen is a hallmark feature of cystic fibrosis. Therefore, the luminal area was measured from a minimum of 30 images from CF knockout mice treated with Peptamen™ alone or Peptamen™ plus 40 mg/day of DHA as well as wild type (WT) mice treated with Peptamen™ alone beginning at the time of weaning. Animals were sacrificed at 37 days of age and each pancreas fixed in glutaraldehyde. Analysis was performed using NIH Image software. The results are outlined in FIG. 1. […] No other treatment to date has shown tissue improvements at a morphological level.
The morphology of various organs were also studied. Sample preparation were carried out as follows: 1-2 cm of ileum adjacent to the cecum was fixed in formalin, embedded in paraffin, cut in cross-section, and stained with hematoxylin/eosin. For pancreatic analyses, 2-3 mm pieces of pancreas were fixed for 1.5 h in 2% glutaraldehyde in 0.2M cacodylate buffer. Tissue samples were then washed in 0.2M cacodylate buffer and subsequently postfixed for 1 h in 1% osmium tetroxide in 0.1 M cacodylate buffer. Tissue was embedded in epon and thick sections stained with 1% toluidine blue.
Morphometry: For measurement of ileal villus height or pancreatic luminal diameter, multiple images were randomly taken at 200× using a Nikon Microphot-SA microscope equipped with a Diagnostic Instruments, Inc., Spot Digitizing System. Images were examined in a blinded fashion by two independent observers. Quantitation was performed using NIH Imaging Software. The differences between the means in the groups tested were evaluated using the Student's t-test.
Tissue samples from these mice were prepared for light microscopy and sections analyzed at 200×. Pancreatic acinar cell morphology of CFTR−/− control mice is characterized by massive luminal dilatation and zymogen granule accumulation at the apical pole of the acinar cells (data not shown), two hallmark features of cystic fibrosis pathology (W. V. L. Go. (1993) Pancreas: Biology, Pathobiology, and Disease, Chapter 54:1041-1081). […] Luminal diameter is approximately 9fold greater in CFTR−/− mice. […] There also appeared to be a decrease in ductal plugs DGA-fed CFTR−/− mice; however, this observation was not subjected to morphometric analysis.
Additional experiments were performed to observe the effect of administering the DHA precursor docosapentaenoic acid (DPA,22:5n-3) on DHA levels. Wild-type and CFTR−/− mice were fed with 40 mg of DPA per day for 7 days and fatty acids in pancreas and lung analyzed by GC/MS. One to 2 mm pieces of pancreas from both wild-type and CFTR−/−were fixed for 1.5 h in […] in 0.2M cacodylate buffer and processed for morphometric analysis.

[1] = Plasma levels of DHA in mice fed DHA; type: in vivo, mouse; conditions: for Plasma level of DHA: values for two different mice
Method: Mouse pancreatic acinar and lung cell suspensions were prepared from wild type (n=3) and CFTR−/− mice (n=3) by enzymatic and mechanical dissociation. In addition, brain, kidney, heart, spleen, and blood were sonicated in 0.3M sucrose buffer. Membrane lipids were extracted from cell and organ preparations with 20 volumes of chloroform-methanol 2:1 (v/v), transmethylated with 0.5 mL of 0.1 N methanolic-NaOH/BF3 reagent, and the resulting fatty acid methyl esters analyzed by gas chromatography/mass spectrometry (GC/MS). In a different set of experiments, lipids were fractionated by aminopropyl column chromatography into triglycerides, cholesterol esters, and phosphoglycerides and the fatty acid composition of each lipid class determined by a combination of enzymatic hydrolysis, transmethylation, and GC/MS.
Cystic fibrosis (UNC strain) and wild type mice (12-20 grams body weight) were fed with a complete liquid enteral formulation (Peptamen™, Nestle Clinical Nutrition, Inc.) supplemented with different quantities of the DHA-containing formulation Neuromins (Nature's Way Products Inc., Springville, Utah). DHA content in the Neuromins formulation was 100 mg per 500 mg of formulation. Mice were fed once a day at about 11 a.m., seven days a week with 20 ml of Peptamen™ supplemented with the various amounts of either Neuramins, free DHA (Sigma Chemical Co., MO) or DHA-ethyl ester (Nu-Check-Prep, Inc. MN) ranging from 0.5 mg/day of DHA to 40 mg/day of DHA.
Plasma levels of DHA in CF and wild-type mice were measured as described above in the method section.
Since the pancreas and the lung are the two primary organs affected in cystic fibrosis, AA and DHA levels in cell preparations of these organs and in wild-type and CFTR−/− mice were quantitated by GC/MS analysis. Lipids were extracted from cell suspensions, tissue homogenates, and blood plasma with 6 volumes of chloroform-methanol (2:1, v/v). The resulting emulsions were centrifuged at 600 g for 3 min and the lower phase containing the lipids was collected. This procedure was repeated twice and the lower phases from the two extractions combined. Aliquots of 30 μL of heptadecanoic acid (17:0) (1 mg/ml) were added to the extracts and used as an internal standard. Samples were evaporated to dryness under nitrogen. The resulting lipids were subsequently transmethylated using the 0.1N methanolic NaOH/boron tri fluoride reagent (Alvarez et al., (1995) Mol. Reprod. Dev. 42:334-346). The resulting fatty acid methyl esters were analyzed by Hewlett Packard GC/MS mounted with a WCOT capillary column (Supelcowax-10, 30 m×0.53 mm I.D., 1 μm film thickness) with initial and final temperatures in the column oven of 150° C. and 250° C., respectively, programmed to increase at a rate of 10° C./min. Fatty acid methyl ester peaks were identified by comparison of retention times of standard fatty acid mixtures and by mass spectrometry, and quantified using methylheptadecanoate as the internal standard. In some studies, the different lipid classes including cholesterol esters, triglycerides, free fatty acids, and glycerolipids, were also fractionated from cell and tissue extracts by aminopropyl column chromatography and the corresponding fatty acid methyl esters prepared and analyzed (Alvarez et al., (1992) J. Chromatogr. B. 577:142-145). In order to determine the fatty acids bound to the sn-2 position of lipids, the phospholipid fraction obtained by aminopropyl column chromatography was incubated at 37° C. for 15 min in 0.5 ml of PBS containing 250 units of phospholipase A2, and the resulting fatty acids methylated and analyzed by GC/MS (Alvarez et al., (1995) Mol. Reprod. Dev. 42:334-346).

## CC/C=C\C/C=C\C/C=C\C/C=C\C/C=C\C/C=C\CCC(=O)O [DHA, docosahexaenoic acid]
CFTR−/− mice; oral 40 mg/day for 7 days, p<0.0001, n=6
  Decrease in pancreatic luminal diameter: 63%
[1]; CF mice, 0.5 mg/day DHA
  Plasma level of DHA: 41 µg/mL and 40 µg/mL
[1]; CF mice, 2 mg/day DHA
  Plasma level of DHA: 99 µg/mL and 77 µg/mL
[1]; CF mice, 10 mg/day DHA
  Plasma level of DHA: 106 µg/mL and 133 µg/mL
[1]; CF mice, 40 mg/day DHA
  Plasma level of DHA: 230 µg/mL and 263 µg/mL
[1]; CFTR−/− mice, 35 to 40 mg/day DHA in liquid enteral formulation
  DHA plasma level reached: above 170 μg/ml
[1]; WT mice, 40 mg/day DHA
  Plasma level of DHA: 214 µg/mL and 194 µg/mL
[1]; increasing oral doses of DHA, p=0.5, n=3 (FIG. 6)
  DHA plasma levels in CFTR−/− versus wild-type mice: not significantly different

## CC/C=C\C/C=C\C/C=C\C/C=C\C/C=C\CCCCCC(=O)O [DPA, docosapentaenoic acid]
CFTR−/− mice; 40 mg per day for 7 days
  Improvement in pancreas morphology (pancreatic ductal diameter, presence of plugs): 20%

## CC/C=C\C/C=C\C/C=C\CCCCCCCC(=O)O [LNA, α-linolenic acid, reference compound]
CFTR−/− mice
  Effect on pancreas morphology (in words): significant increase in acinar lumen dilatation and plug formation; also recorded: significant increase in ductal dilatation; also recorded: increased acinar lumen dilation and plug formation
CFTR−/− mice; listed as 18:3n-3
  Effect on pancreas morphology (in words): worsening of the pathological changes in the pancreas
